From patent publication US20250034135A1, “ANTI-APOPTOTIC PROTEIN BCL-2 INHIBITOR, PHARMACEUTICAL COMPOSITION AND USES THEREOF” (HANGZHOU HEALZEN THERAPEUTICS CO., LTD., priority 2021, published 2025)

molecular target: BCL2 (Homo sapiens (Human), UniProt P10415); assay: Molecular level activity test of anti-apoptotic protein BCL2 (HTRF, binding to Bim peptide); details: HTRF, binding of BCL2 to Bim peptide; read-out: BCL2 nM (inhibitory activity, IC50)
Description: The detection of the binding ability between anti-apoptotic protein BCL2 and pro-apoptotic protein Bim was performed using Homogeneous Time-Resolved Fluorescence technology. The reaction of this method occurred in a white shallow 384-well plate, with a total reaction volume of 10 μL. Specifically, it included 2 μL of the compound to be tested (2% DMSO), 4 μL His-tagged recombinant protein, and 4 μL Biotin-tagged BIM protein peptide. After 1 hour of reaction, 5 μL of each Anti-His and streptavidin-tagged XL665 antibody diluents diluted with a detection buffer were added. After incubating at room temperature for 4 hours, the values were read using the Envision multifunctional microplate reader to detect the effect of the compound to be tested on the binding ability of BCL2 to Bim protein peptides.

Chain of BCL2 (P10415 whole entry): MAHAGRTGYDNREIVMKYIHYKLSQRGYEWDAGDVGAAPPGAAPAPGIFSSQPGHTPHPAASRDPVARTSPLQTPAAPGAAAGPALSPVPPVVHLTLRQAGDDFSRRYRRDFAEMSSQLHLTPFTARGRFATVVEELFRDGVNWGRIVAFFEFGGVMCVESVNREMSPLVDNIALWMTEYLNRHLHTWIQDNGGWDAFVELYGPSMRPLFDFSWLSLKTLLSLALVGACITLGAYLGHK

For `COc1ccc(CN2CCN(C3CC4(CCN(c5ccc(C(=O)NS(=O)(=O)c6cc([N+](=O)[O-])c(NCC7(F)CCN(C(C)C)CC7)c7[nH]cnc67)c(Oc6cnc7[nH]ccc7c6)c5)CC4)C3)C(c3ccccc3C(C)C)C2)cc1` (stereo not shown) [compound 048, 2-((1H-pyrrolo[2,3-b]pyrid-5-yl)oxy)-N-((7-(((4-fluoro-1-isopropylpiperid-4-yl)methyl)amino)-6-nitro-1H-benzo[d]imidazol-4-yl)sulfonyl)-4-(2-(2-(2-isopropylphenyl)-4-(4-methoxybenzyl)piperazin-1-yl)-7-azaspiro[3.5]non-7-yl)benzamide], which IC50 is on record?
Its IC50 is under 10 nM.

Which IC50 does the source give for `COc1ccc(CN2CCN(C3CC4(CCN(c5ccc(C(=O)NS(=O)(=O)c6cc([N+](=O)[O-])c(NC[C@H]7CC[C@](C)(O)CC7)c7[nH]cnc67)c(Oc6cnc7[nH]cc(F)c7c6)c5)CC4)C3)C(c3ccccc3C(C)C)C2)cn1` (stereo partly shown) [compound 049, 2-((3-fluoro-1H-pyrrolo[2,3-b]pyrid-5-yl)oxy)-N-((7-((((1r,4r)-4-hydroxy-4-methylcyclohexyl)methyl)amino)-6-nitro-1H-benzo[d]imidazol-4-yl)sulfonyl)-4-(2-(2-(2-isopropylphenyl)-4-((6-methoxypyrid-3-yl)methyl)piperazin-1-yl)-7-azaspiro[3.5]non-7-yl)benzamide] here?
The IC50 was under 10 nM.

Which IC50 does the source give for `COc1ccc(CN2CCN(C3CC4(CCN(c5ccc(C(=O)NS(=O)(=O)c6cc([N+](=O)[O-])c(NCC7(F)CCN(C(C)C)CC7)c7[nH]cnc67)c(Oc6cnc7[nH]cc(F)c7c6)c5)CC4)C3)C(c3ccccc3C(C)C)C2)cc1` (stereo not shown) [compound 050] here?
The IC50 was under 10 nM.

How did the IC50 turn out when `CC(C)c1ccccc1C1CN(C2CCOCC2)CCN1C1CC2(CCN(c3cc(Oc4cnc5[nH]ccc5c4)c(C(=O)NS(=O)(=O)c4ccc(NC[C@H]5CC[C@](C)(O)CC5)c([N+](=O)[O-])c4)cn3)CC2)C1` (stereo partly shown) [compound 051, 4-((1H-pyrrolo[2,3-b]pyrid-5-yl)oxy)-N-((4-((((1r,4r)-4-hydroxy-4-methylcyclohexyl)methyl)amino)-3-nitrophenyl)sulfonyl)-6-(2-(2-(2-isopropylphenyl)-4-(tetrahydro-2H-pyran-4-yl)piperazin-1-yl)-7-azaspiro[3.5]non-7-yl) nicotinamide] was run?
The IC50 was under 10 nM.

How did the IC50 turn out when `CC(C)c1ccccc1C1CN(C2CCOCC2)CCN1C1CC2(C1)CN(c1cc(Oc3cnc4[nH]ccc4c3)c(C(=O)NS(=O)(=O)c3ccc(NC[C@H]4CC[C@](C)(O)CC4)c([N+](=O)[O-])c3)cn1)C2` (stereo partly shown) [compound 052, 4-((1H-pyrrolo[2,3-b]pyrid-5-yl)oxy)-N-((4-((((1r,4r)-4-hydroxy-4-methylcyclohexyl)methyl)amino)-3-nitrophenyl)sulfonyl)-6-(6-(2-(2-isopropylphenyl)-4-(tetrahydro-2H-pyran-4-yl)piperazin-1-yl)-2-azaspiro[3.3]hept-2-yl) nicotinamide] was run?
Its IC50 is under 10 nM.

Which IC50 does the source give for `COc1ccc(CN2CCN(C3CC4(C3)CN(c3cc(Oc5cnc6[nH]ccc6c5)c(C(=O)NS(=O)(=O)c5ccc(NCC6(F)CCN(C7COC7)CC6)c([N+](=O)[O-])c5)cn3)C4)C(c3ccccc3C(C)C)C2)cc1` (stereo not shown) [compound 054] here?
Its IC50 is under 10 nM.

`COc1ccc(CN2CCN(C3CC4(CCN(c5cc(Oc6cnc7[nH]ccc7c6)c(C(=O)NS(=O)(=O)c6ccc(NC[C@H]7CC[C@](C)(O)CC7)c([N+](=O)[O-])c6)cc5F)CC4)C3)C(c3ccccc3C(C)C)C2)cc1` (stereo partly shown) [compound 055, 2-((1H-pyrrolo[2,3-b]pyrid-5-yl)oxy)-5-fluoro-N-((4-((((1r,4r)-4-hydroxy-4-methylcyclohexyl)methyl)amino)-3-nitrophenyl)sulfonyl)-4-(2-(2-(2-isopropylphenyl)-4-(4-methoxybenzyl)piperazin-1-yl)-7-azaspiro[3.5]non-7-yl)benzamide] was tested. Which IC50 did it give?
Its IC50 is under 10 nM.

With `COc1ccc(CN2CCN(C3CC4(C3)CN(c3cc(Oc5cnc6[nH]ccc6c5)c(C(=O)NS(=O)(=O)c5ccc(NC[C@H]6CC[C@](C)(O)CC6)c([N+](=O)[O-])c5)cc3F)C4)C(c3ccccc3C(C)C)C2)cc1` (stereo partly shown) [compound 056, 2-((1H-pyrrolo[2,3-b]pyrid-5-yl)oxy)-5-fluoro-N-((4-((((1r,4r)-4-hydroxy-4-methylcyclohexyl)methyl)amino)-3-nitrophenyl)sulfonyl)-4-(6-(2-(2-isopropylphenyl)-4-(4-methoxybenzyl)piperazin-1-yl)-2-azaspiro[3.3]hept-2-yl)benzamide] as the compound, how does the IC50 read?
The IC50 was under 10 nM.

`CC(C)c1ccccc1C1CN(C2CCOCC2)CCN1C1CC2(CCN(c3cc(Oc4cnc5[nH]cc(F)c5c4)c(C(=O)NS(=O)(=O)c4ccc(NC[C@H]5CC[C@](C)(O)CC5)c([N+](=O)[O-])c4)cn3)CC2)C1` (stereo partly shown) [compound 059, 4-((3-fluoro-1H-pyrrolo[2,3-b]pyrid-5-yl)oxy)-N-((4-((((1r,4r)-4-hydroxy-4-methylcyclohexyl)methyl)amino)-3-nitrophenyl)sulfonyl)-6-(2-(2-(2-isopropylphenyl)-4-(tetrahydro-2H-pyran-4-yl)piperazin-1-yl)-7-azaspiro[3.5]non-7-yl) nicotinamide] was tested. Which IC50 did it give?
Its IC50 is under 10 nM.

With `COc1ccc(CN2CCN(C3CC4(CCN(c5cc(Oc6cnc7[nH]cc(F)c7c6)c(C(=O)NS(=O)(=O)c6ccc(NC[C@H]7CC[C@](C)(O)CC7)c([N+](=O)[O-])c6)cc5F)CC4)C3)C(c3ccccc3C(C)C)C2)cc1` (stereo partly shown) [compound 060, 5-fluoro-2-((3-fluoro-1H-pyrrolo[2,3-b]pyrid-5-yl)oxy)-N-((4-((((1r,4r)-4-hydroxy-4-methylcyclohexyl)methyl)amino)-3-nitrophenyl)sulfonyl)-4-(2-(2-(2-isopropylphenyl)-4-(4-methoxybenzyl)piperazin-1-yl)-7-azaspiro[3.5]non-7-yl)benzamide] as the compound, how does the IC50 read?
The IC50 was under 10 nM.

For `COc1ccc(CN2CCN(C3CC4(CCN(c5cc(Oc6cnc7[nH]cc(F)c7c6)c(C(=O)NS(=O)(=O)c6ccc(NCC7(F)CCN(C(C)C)CC7)c([N+](=O)[O-])c6)cn5)CC4)C3)C(c3ccccc3C(C)C)C2)cc1` (stereo not shown) [compound 061, N-((4-(((4-fluoro-1-isopropylpiperid-4-yl)methyl)amino)-3-nitrophenyl)sulfonyl)-4-((3-fluoro-1H-pyrrolo[2,3-b]pyrid-5-yl)oxy)-6-(2-(2-(2-isopropylphenyl)-4-(4-methoxybenzyl)piperazin-1-yl)-7-azaspiro[3.5]non-7-yl) nicotinamide], which IC50 is on record?
Its IC50 is under 10 nM.

With `COc1ccc(CN2CCN(C3CC4(CCN(c5cc(Oc6cnc7[nH]ccc7c6)c(C(=O)NS(=O)(=O)c6ccc(NCC7CCOCC7)c([N+](=O)[O-])c6)cc5F)CC4)C3)C(c3ccccc3C(C)C)C2)cc1` (stereo not shown) [compound 064, 2-((1H-pyrrolo[2,3-b]pyrid-5-yl)oxy)-5-fluoro-4-(2-(2-(2-isopropylphenyl)-4-(4-methoxybenzyl)piperazin-1-yl)-7-azaspiro[3.5]non-7-yl)-N-((3-nitro-4-(((tetrahydro-2H-pyran-4-yl)methyl)amino)phenyl)sulfonyl)benzamide] as the compound, how does the IC50 read?
Its IC50 is under 10 nM.

How did the IC50 turn out when `COc1ccc(CN2CCN(C3CC4(CCN(c5cc(Oc6cnc7[nH]ccc7c6)c(C(=O)NS(=O)(=O)c6ccc(NCC7(F)CCOCC7)c([N+](=O)[O-])c6)cn5)CC4)C3)C(c3ccccc3C(C)C)C2)cc1` (stereo not shown) [compound 065, 4-((1H-pyrrolo[2,3-b]pyrid-5-yl)oxy)-N-((4-(((4-fluorotetrahydro-2H-pyran-4-yl)methyl)amino)-3-nitrophenyl)sulfonyl)-6-(2-(2-(2-isopropylphenyl)-4-(4-methoxybenzyl)piperazin-1-yl)-7-azaspiro[3.5]non-7-yl) nicotinamide] was run?
Its IC50 is under 10 nM.

Which IC50 does the source give for `COc1ccc(CN2CCN(C3CC4(CCN(c5cc(Oc6cnc7[nH]ccc7c6)c(C(=O)NS(=O)(=O)c6cc([N+](=O)[O-])c(NC[C@H]7CC[C@](C)(O)CC7)c7[nH]cnc67)cn5)CC4)C3)C(c3ccccc3C(C)C)C2)cc1` (stereo partly shown) [compound 067, 4-((1H-pyrrolo[2,3-b]pyrid-5-yl)oxy)-N-((7-((((1r,4r)-4-hydroxy-4-methylcyclohexyl)methyl)amino)-6-nitro-1H-benzo[d]imidazol-4-yl)sulfonyl)-6-(2-(2-(2-isopropylphenyl)-4-(4-methoxybenzyl)piperazin-1-yl)-7-azaspiro[3.5]non-7-yl) nicotinamide] here?
The IC50 was under 10 nM.

`COc1ccc(CN2CCN(C3CC4(C3)CN(c3cc(Oc5cnc6[nH]ccc6c5)c(C(=O)NS(=O)(=O)c5cc([N+](=O)[O-])c(NC[C@H]6CC[C@](C)(O)CC6)c6[nH]cnc56)cn3)C4)C(c3ccccc3C(C)C)C2)cc1` (stereo partly shown) [compound 068, 4-((1H-pyrrolo[2,3-b]pyrid-5-yl)oxy)-N-((7-((((1r,4r)-4-hydroxy-4-methylcyclohexyl)methyl)amino)-6-nitro-1H-benzo[d]imidazol-4-yl)sulfonyl)-6-(6-(2-(2-isopropylphenyl)-4-(4-methoxybenzyl)piperazin-1-yl)-2-azaspiro[3.3]hept-2-yl) nicotinamide] was tested. Which IC50 did it give?
Its IC50 is under 10 nM.

For `COc1ccc(CN2CCN(C3CC4(CCN(c5cc(Oc6cnc7[nH]ccc7c6)c(C(=O)NS(=O)(=O)c6cc([N+](=O)[O-])c(NCC7(F)CCN(C(C)C)CC7)c7[nH]cnc67)cn5)CC4)C3)C(c3ccccc3C(C)C)C2)cc1` (stereo not shown) [compound 069, 4-((1H-pyrrolo[2,3-b]pyrid-5-yl)oxy)-N-((7-(((4-fluoro-1-isopropylpiperid-4-yl)methyl)amino)-6-nitro-1H-benzo[d]imidazol-4-yl)sulfonyl)-6-(2-(2-(2-isopropylphenyl)-4-(4-methoxybenzyl)piperazin-1-yl)-7-azaspiro[3.5]non-7-yl) nicotinamide], which IC50 is on record?
The IC50 was under 10 nM.
